Data from ChEMBL document CHEMBL5104187, “Discovery of 2-(1-(3-Chloro-4-cyanophenyl)-1H-pyrazol-3-yl)acetamides as Potent, Selective, and Orally Available Antagonists Targeting the Androgen Receptor” (J Med Chem, 2022).
Active and inactive are the calls of the source. The calls are words filed in the database; no cut-off is given here.

How the values were obtained:
Androgen receptor [1] = target: T1, Androgen receptor (Homo sapiens, UniProt P10275); assay: Antagonist activity at androgen receptor (unknown origin) in human LNCap-ARR2PB-eGFP cells by measuring fluorescence intensity measured after 3 days by transcriptional assay; assay type: cell-based
T1 sequence (P10275 whole entry): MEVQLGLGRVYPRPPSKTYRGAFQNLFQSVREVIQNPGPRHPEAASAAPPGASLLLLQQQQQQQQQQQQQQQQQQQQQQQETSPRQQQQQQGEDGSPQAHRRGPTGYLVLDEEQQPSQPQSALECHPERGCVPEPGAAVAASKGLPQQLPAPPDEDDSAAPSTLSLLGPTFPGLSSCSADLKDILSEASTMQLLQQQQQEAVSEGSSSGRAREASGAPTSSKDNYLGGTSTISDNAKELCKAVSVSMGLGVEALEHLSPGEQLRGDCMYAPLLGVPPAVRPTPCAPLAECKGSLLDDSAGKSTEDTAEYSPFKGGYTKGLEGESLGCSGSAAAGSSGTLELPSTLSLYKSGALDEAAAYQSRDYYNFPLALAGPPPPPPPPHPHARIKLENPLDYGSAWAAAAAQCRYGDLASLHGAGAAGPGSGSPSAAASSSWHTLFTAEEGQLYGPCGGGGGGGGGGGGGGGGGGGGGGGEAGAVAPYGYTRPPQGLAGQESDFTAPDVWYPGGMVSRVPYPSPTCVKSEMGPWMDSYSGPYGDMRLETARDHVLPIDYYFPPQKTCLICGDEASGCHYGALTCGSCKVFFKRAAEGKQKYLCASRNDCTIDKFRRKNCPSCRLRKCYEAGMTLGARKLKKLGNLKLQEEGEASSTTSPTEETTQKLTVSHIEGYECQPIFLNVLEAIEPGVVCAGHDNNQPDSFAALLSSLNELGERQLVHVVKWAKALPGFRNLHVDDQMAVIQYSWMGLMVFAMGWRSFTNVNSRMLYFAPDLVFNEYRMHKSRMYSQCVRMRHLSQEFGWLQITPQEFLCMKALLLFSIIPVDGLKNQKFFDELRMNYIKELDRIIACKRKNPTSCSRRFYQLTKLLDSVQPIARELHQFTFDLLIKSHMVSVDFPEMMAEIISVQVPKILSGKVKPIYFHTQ

Androgen receptor [2] = target: T2, Androgen receptor (Homo sapiens, UniProt P10275, F877L/T878A); assay: Antagonist activity at androgen receptor F877L/T877A dual mutant (unknown origin) expressed in PC-3 cells assessed as inhibition of transcriptional activity measured after 24 hrs by dual luciferase assay; assay type: cell-based
T2 sequence (P10275 whole entry F877L/T878A): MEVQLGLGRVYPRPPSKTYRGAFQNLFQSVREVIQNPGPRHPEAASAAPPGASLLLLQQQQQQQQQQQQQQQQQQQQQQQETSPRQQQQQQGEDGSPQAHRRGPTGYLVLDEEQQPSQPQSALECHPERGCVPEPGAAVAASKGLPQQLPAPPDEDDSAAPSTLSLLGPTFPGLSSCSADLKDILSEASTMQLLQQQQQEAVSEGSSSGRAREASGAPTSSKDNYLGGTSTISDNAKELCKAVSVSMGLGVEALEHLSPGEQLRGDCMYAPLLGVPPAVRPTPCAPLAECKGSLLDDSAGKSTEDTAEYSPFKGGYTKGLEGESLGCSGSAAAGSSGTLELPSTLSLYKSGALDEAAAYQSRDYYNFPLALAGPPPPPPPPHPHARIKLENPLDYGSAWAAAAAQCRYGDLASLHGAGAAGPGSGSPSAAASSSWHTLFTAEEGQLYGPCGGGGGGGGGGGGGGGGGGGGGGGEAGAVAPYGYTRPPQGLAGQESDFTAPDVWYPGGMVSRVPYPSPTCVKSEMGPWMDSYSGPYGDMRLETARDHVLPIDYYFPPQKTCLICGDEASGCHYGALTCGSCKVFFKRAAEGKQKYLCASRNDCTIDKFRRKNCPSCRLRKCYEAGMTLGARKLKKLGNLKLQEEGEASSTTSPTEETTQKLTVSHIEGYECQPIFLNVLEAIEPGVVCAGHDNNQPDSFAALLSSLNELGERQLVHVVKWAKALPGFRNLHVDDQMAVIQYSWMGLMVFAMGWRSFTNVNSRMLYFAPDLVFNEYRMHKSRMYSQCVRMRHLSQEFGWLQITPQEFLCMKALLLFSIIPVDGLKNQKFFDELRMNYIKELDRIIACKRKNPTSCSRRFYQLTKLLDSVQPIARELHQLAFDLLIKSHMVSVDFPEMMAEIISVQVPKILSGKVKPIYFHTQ

Androgen receptor [3] = target: T3, Androgen receptor (Homo sapiens, UniProt P10275, F877L); assay: Antagonist activity at androgen receptor F877L mutant (unknown origin) expressed in PC-3 cells assessed as inhibition of transcriptional activity measured after 24 hrs by dual luciferase assay; assay type: cell-based
T3 sequence (P10275 whole entry F877L): as the sequence (P10275 whole entry F877L/T878A) above, with A878T counted along it

Androgen receptor [4] = target: T3, Androgen receptor; assay: Antagonist activity at androgen receptor F877L mutant in human PC-3 cells assessed as inhibition of transcriptional activity measured after 24 hrs by luminescence based microplate reader assay; assay type: cell-based
Androgen receptor [5] = target: T2, Androgen receptor; assay: Antagonist activity at androgen receptor F876L/T877A mutant in human PC-3 cells assessed as inhibition of transcriptional activity measured after 24 hrs by luminescence based microplate reader assay; assay type: cell-based
Androgen receptor [6] = target: T1, Androgen receptor
[7] = Cytotoxicity against human GES1 cells assessed as inhibition of cell proliferation by MTT assay; assay type: toxicity, cell-based
[8] = Antagonist activity at mineralocorticoid receptor (unknown origin) transfected in PC-3 cells assessed as inhibition of […]-stimulated transcriptional activity after 3 days by dual luciferase reporter assay; assay type: cell-based; settings: Homo sapiens, PC-3, 72 h
[9] = Antagonist activity at androgen receptor T878G mutant (unknown origin) expressed in PC-3 cells assessed as inhibition of transcriptional activity measured after 24 hrs by dual luciferase assay; assay type: cell-based; settings: Homo sapiens, PC-3, 24 h
[10] = target: T4, Androgen receptor (Homo sapiens) (UniProt P10275); assay: Antagonist activity at human AR AF2 assessed as inhibition of fluorescent-labelled D11-FxxLF peptide Co-activator to receptor by TR-FRET assay; settings: filed as antagonist
T4 sequence (whole entry): T1 sequence (P10275 whole entry)

LNCaP = assay: Cytotoxicity against human LNCAP cells assessed as inhibition of cell proliferation by MTT assay; assay type: functional, cell-based
[11] = Inhibition of PSA secretion in human LNCaP ARR2PB-eGFP cells measured after 3 days by immuno assay; assay type: functional, cell-based; settings: 72 h
[12] = Cytotoxicity against human Chang liver cells assessed as inhibition of cell proliferation by MTT assay; assay type: toxicity, cell-based

Question: Which IC50 (Androgen receptor [1]) does the source give for N#Cc1ccc(-n2ccc(CNC(=O)c3ccc(F)cc3)n2)cc1C(F)(F)F here?
Answer: Its IC50 is 0.76 µM.

Question: Which results are given for N#Cc1ccc(-n2ccc(CC(=O)Nc3ccc(F)nc3)n2)cc1C(F)(F)F?
Answer: IC50 (Androgen receptor [2]): 1.12 µM; IC50 (Androgen receptor [3]): 1.31 µM; IC50 (Androgen receptor [4]): 1.31 µM; IC50 (Androgen receptor [5]): 1.12 µM; Kd (Androgen receptor [6]): 8.99 µM; IC50 [7]: > 1000 µM; IC50 [8]: 16.3 µM; IC50 [9]: 0.31 µM; Activity [10]: Active; IC50 (LNCaP): 8.84 µM; IC50 [11]: 1.75 µM; IC50 (Androgen receptor [1]): 0.14 µM; IC50 [12]: > 1000 µM

Question: Which IC50 (Androgen receptor [1]) does the source give for N#Cc1ccc(-n2ccc(CCCNC(=O)c3ccc(F)cc3)n2)cc1C(F)(F)F here?
Answer: Its IC50 is > 25 µM.

Question: For N#Cc1ccc(-n2ccc(CC(=O)Nc3ccc([N+](=O)[O-])cc3)n2)cc1C(F)(F)F, which IC50 (Androgen receptor [1]) is on record?
Answer: Its IC50 is 0.08 µM.

Question: For N#Cc1ccc(-n2ccc(CNC(=O)c3ccc(F)cn3)n2)cc1C(F)(F)F, which IC50 (Androgen receptor [1]) is on record?
Answer: Its IC50 is 5.82 µM.

Question: For N#Cc1ccc(C(=O)NCc2ccn(-c3ccc(C#N)c(C(F)(F)F)c3)n2)cc1, which IC50 (Androgen receptor [1]) is on record?
Answer: The IC50 was 0.3 µM.

Question: For N#Cc1ccc(-n2ccc(CNC(=O)c3ccc(C(F)(F)F)cc3)n2)cc1C(F)(F)F, which IC50 (Androgen receptor [1]) is on record?
Answer: Its IC50 is > 25 µM.

Question: For N#Cc1ccc(-n2ccc(CC(=O)Nc3ccc(F)cn3)n2)cc1Cl, which IC50 (Androgen receptor [1]) is on record?
Answer: Its IC50 is 0.17 µM.

Question: With CC(O)c1cc(C(=O)N[C@H](C)Cn2ccc(-c3ccc(C#N)c(Cl)c3)n2)n[nH]1 (stereo partly drawn) as the molecule, how does the IC50 [9] read?
Answer: Its IC50 is 0.69 µM.

Question: Which IC50 (Androgen receptor [1]) does the source give for N#Cc1ccc(-n2ccc(NC(=O)Nc3ccc(F)cc3)n2)cc1C(F)(F)F here?
Answer: The IC50 was > 25 µM.

Question: Which IC50 (Androgen receptor [1]) does the source give for N#Cc1ccc(NC(=O)Cc2ccn(-c3ccc(C#N)c(C(F)(F)F)c3)n2)cc1 here?
Answer: The IC50 was 0.05 µM.

Question: Which IC50 (Androgen receptor [1]) does the source give for O=C(Cc1ccn(-c2ccc([N+](=O)[O-])c(C(F)(F)F)c2)n1)Nc1ccc(F)cn1 here?
Answer: The IC50 was 2.57 µM.

Question: With Cc1cn(-c2ccc(C#N)c(C(F)(F)F)c2)nc1CNC(=O)c1ccc(C#N)cc1 as the molecule, how does the IC50 (Androgen receptor [1]) read?
Answer: The IC50 was 14.9 µM.

Question: For CC(C)(O)c1ccc(C(=O)NCc2ccn(-c3ccc(C#N)c(C(F)(F)F)c3)n2)cc1, which IC50 (Androgen receptor [1]) is on record?
Answer: The IC50 was > 25 µM.

Question: For N#Cc1ccc(-n2ccc(CC(=O)Nc3ccc(F)cc3)n2)cc1C(F)(F)F, which IC50 (Androgen receptor [2]) is on record?
Answer: Its IC50 is 0.25 µM.

Question: What about the IC50 (Androgen receptor [3]) of the same molecule?
Answer: The IC50 was 0.91 µM.

Question: And the IC50 (Androgen receptor [4])?
Answer: Its IC50 is 0.91 µM.

Question: What about the IC50 (Androgen receptor [5]) of the same molecule?
Answer: Its IC50 is 0.25 µM.

Question: What about the Kd (Androgen receptor [6]) of the same molecule?
Answer: Its Kd is 10 µM.

Question: And the IC50 [7]?
Answer: Its IC50 is > 1000 µM.

Question: What about the IC50 [8] of the same molecule?
Answer: Its IC50 is 4.43 µM.

Question: And the IC50 [9]?
Answer: The IC50 was 0.08 µM.

Question: And the Activity [10]?
Answer: Its Activity is “Active”.

Question: What about the IC50 (LNCaP) of the same molecule?
Answer: Its IC50 is 5.85 µM.

Question: And the IC50 [11]?
Answer: Its IC50 is 3.91 µM.

Question: What about the IC50 (Androgen receptor [1]) of the same molecule?
Answer: The IC50 was 0.12 µM.

Question: And the IC50 [12]?
Answer: The IC50 was > 1000 µM.

Question: Which IC50 (Androgen receptor [1]) does the source give for Cc1cn(-c2ccc(C#N)c(C(F)(F)F)c2)nc1CNC(=O)c1ccc([N+](=O)[O-])cc1 here?
Answer: Its IC50 is 0.45 µM.

Question: Which IC50 (Androgen receptor [1]) does the source give for CC(O)c1cc(C(=O)NCc2ccn(-c3ccc(C#N)c(C(F)(F)F)c3)n2)n[nH]1 (stereo not drawn) here?
Answer: The IC50 was > 25 µM.

Question: With N#Cc1ccc(NC(=O)c2ccn(-c3ccc(C#N)c(C(F)(F)F)c3)n2)cc1 as the molecule, how does the IC50 (Androgen receptor [1]) read?
Answer: The IC50 was > 25 µM.

Question: For N#Cc1ccc(C(=O)NCCc2ccn(-c3ccc(C#N)c(C(F)(F)F)c3)n2)cc1, which IC50 (Androgen receptor [1]) is on record?
Answer: Its IC50 is > 25 µM.

Question: With N#Cc1ccc(-n2ccc(CC(=O)Nc3ccc(F)c(F)c3)n2)cc1C(F)(F)F as the molecule, how does the IC50 (Androgen receptor [1]) read?
Answer: Its IC50 is 0.21 µM.

Question: Which IC50 (Androgen receptor [1]) does the source give for N#Cc1ccc(-n2ccc(CCCNC(=O)c3ccc([N+](=O)[O-])cc3)n2)cc1C(F)(F)F here?
Answer: Its IC50 is > 25 µM.

Question: Which IC50 (Androgen receptor [1]) does the source give for N#Cc1cc(NC(=O)Cc2ccn(-c3ccc(C#N)c(C(F)(F)F)c3)n2)ccc1F here?
Answer: Its IC50 is 6.34 µM.

Question: Which IC50 (Androgen receptor [1]) does the source give for N#Cc1ccc(-n2cc(-c3ccccc3)c(CNC(=O)c3ccc(F)cc3)n2)cc1C(F)(F)F here?
Answer: The IC50 was > 25 µM.

Question: With N#Cc1ccc(-n2ccc(C(=O)Nc3ccncc3)n2)cc1C(F)(F)F as the molecule, how does the IC50 (Androgen receptor [1]) read?
Answer: The IC50 was > 25 µM.
